# Several values for one entry are separate records, joined by “and”; a condition that tells them apart may be missing. Identical values can stand only once.
# What was measured:
# PI3K = PI3K assay (lipid kinase assay on immunoprecipitate of treated cells); format: cell-based; settings: 1799 cells, 10^−7 M deguelin, 1 day
# Experimental: PI3K Assay. 1799 cells cultured in KSFM containing 10^−7 M deguelin for different time periods were lysed in lysis buffer. PI3K was immunoprecipitated from 500 μg of cellular protein using pan-anti-p85 antibody (Upstate Biotechnology, Waltham, Mass.), which coprecipitates the p110 catalytic subunit of PI3K, and subsequent lipid kinase assay was performed as described previously (Sibilia et al., 2000). Briefly, the mixture was incubated with gentle rocking at 4° C. for 12 h, 10 mg of protein A-sepharose (Amersham Pharmacia Biotech) were added, and the incubation was continued for another 2 h. The immunoprecipitates were washed, in tandem, three times with lysis buffer, twice with 0.1 M Tris/HCl, pH 7.5, containing 0.5 M LiCl, and 10 μM sodium vanadate, and twice with 10 mM Tris/HCl, pH 7.5, containing 100 MM NaCl, 10 μM sodium vanadate, and 1 mM EDTA. Adequate amounts of the washed antibody conjugates, in 10 μl, were added to 80 μl of 30 mM Hepes, pH 7.5, containing 125 μM ATP, 10 μCi of [α-^32P] ATP, and 6.25 mM MgCl2, and the reaction was initiated by adding 20 μg of bovine brain extract (Type 1; Sigma) suspended in 10 μl of 30 mM Hepes, pH 7.5. […] The autoradiograms were scanned by a Photodyne image system and quantified using the NIH Image program (version 1.59).
# H596 = assay: MTT assay, growth inhibition by deguelin or deguelin derivatives; format: cell-based; settings: H596, 3 days
# H460 = assay: as above; format: cell-based; settings: H460, 3 days
# [1] = test system: breast, prostate, head & neck and ovarian cancer cells; assay: MTT assay, growth inhibition in other cancer cells; format: cell-based; settings: 10^−9 M to 10^−6 M, 3 or 5 days; more effective at 10^−7 M to 10^−6 M
# Experimental: It was next determined whether deguelin can inhibit cell growth in cancer cells other than lung cancer cells. Cancer cells, such as breast, prostate, head & neck and ovarian cells were treated with 10^−6 M, 10^−7 M, 10^−8 M, or 10^−9 M deguelin for 3 or 5 days, and cell growth inhibition analyzed by MTT assay.
# 1799 cells = assay: MTT assay, viability of 1799 cells (also after Ad5CMV-MyrAkt-HA infection); format: cell-based
# Source text: (§1) Cells and Cell Cultures. […] Tumors developed 6 months later. […] (Klein-Szanto et al., 1992).
# NSCLC cells = assay: MTT assay, growth inhibition of NSCLC cells by deguelin and deguelin derivatives (Table 2, FIG. 7); format: cell-based; settings: 72 h, depending on the cell line, 3 days
# H661 = assay: MTT assay, growth inhibition by deguelin or deguelin derivatives; format: cell-based; settings: 3 days
# [2] = test system: premalignant (1799, 1198) and malignant (1170) HBE cell lines; assay: MTT assay, growth of premalignant and malignant HBE cell lines; format: cell-based; settings: HBE, 72 h, read-out: IC50, growth of premalignant and malignant HBE cell lines
# Source text: as §1
# H1299 xenografts = assay: NSCLC xenograft tumor growth; format: in vivo, athymic nude mice; settings: 4 mg/kg or 8 mg/kg, 5 consecutive days; measured for 15 days; vs control
# Experimental: The antitumor effect of deguelin was tested using an iii vivo model. H1299 cells were injected into the dorsal flank of athymic nude mice. Once tumor volume reached 40-80 mm^3, treatment for 5 consecutive days with 4 or 8 mg/kg deguelin began. Tumors were measured every other day for 15 days. […] The results are expressed as the mean (±SD) tumor volume (calculated from at least 5 mice) relative to the initial volume.
smiles,measurement,setting,value
COc1cc2c(cc1OC)[C@@H]1C(=O)c3ccc4c(c3O[C@@H]1CO2)C=CC(C)(C)O4 [Deguelin],PI3K activity (lipid kinase assay),PI3K,decreased
same,Avg. % con,H596; deguelin 10^−6M,0.62 % con
same,"MTT value, mean of replicates (unheaded line)",H596; deguelin 10^−6M,0.290
same,"MTT value, replicate (unheaded line)",H596; deguelin 10^−6M,0.29 and 0.298 and 0.281
same,Avg. % con,H596; deguelin 10^−8M,0.67 % con
same,"MTT value, mean of replicates (unheaded line)",H596; deguelin 10^−8M,0.314
same,"MTT value, replicate (unheaded line)",H596; deguelin 10^−8M,0.324 and 0.311 and 0.307
same,Avg. % con,H596; deguelin 10^−10M,0.67 % con
same,"MTT value, mean of replicates (unheaded line)",H596; deguelin 10^−10M,0.313
same,"MTT value, replicate (unheaded line)",H596; deguelin 10^−10M,0.314 and 0.338 and 0.287
same,Avg. % con,H596; deguelin 10^−12M,0.76 % con
same,"MTT value, mean of replicates (unheaded line)",H596; deguelin 10^−12M,0.358
same,"MTT value, replicate (unheaded line)",H596; deguelin 10^−12M,0.386 and 0.372 and 0.317
same,Avg. % con,H460; deguelin 10^−6M,0.17 % con
same,"MTT value, mean of replicates (unheaded line)",H460; deguelin 10^−6M,0.129
same,"MTT value, replicate (unheaded line)",H460; deguelin 10^−6M,0.115 and 0.141 and 0.131
same,Avg. % con,H460; deguelin 10^−8M,0.86 % con
same,"MTT value, mean of replicates (unheaded line)",H460; deguelin 10^−8M,0.635
same,"MTT value, replicate (unheaded line)",H460; deguelin 10^−8M,0.632 and 0.652 and 0.62
same,Avg. % con,H460; deguelin 10^−10M,1.03 % con
same,"MTT value, mean of replicates (unheaded line)",H460; deguelin 10^−10M,0.762
same,"MTT value, replicate (unheaded line)",H460; deguelin 10^−10M,0.783 and 0.761 and 0.743
same,Avg. % con,H460; deguelin 10^−12M,1.06 % con
same,"MTT value, mean of replicates (unheaded line)",H460; deguelin 10^−12M,0.788
same,"MTT value, replicate (unheaded line)",H460; deguelin 10^−12M,0.797 and 0.75 and 0.816
same,"cell proliferation in breast, prostate, head & neck and ovarian cancer cells",[1],inhibit cell proliferation in these cells in a dose dependent manner
same,viable number of 1799 cells,"1799 cells; 1 day, concentration as low as 10^−9 M",reduced
same,viability at 0.1 µM,"1799 cells; 48 h, 10^−7 M deguelin, 2 days, read-out: viable cells, 1799 cells infected with 5×10^3 particles/cell Ad5CMV-Myr.Akt.HA",> 80%
same,IC50,NSCLC cells,100 to 1000 nM
same,Avg. % con,H661; deguelin 10^−6M,0.5756 % con
same,"MTT value, mean of replicates (unheaded line)",H661; deguelin 10^−6M,0.0597
same,"MTT value, replicate (unheaded line)",H661; deguelin 10^−6M,0.059 and 0.055 and 0.065
same,Avg. % con,H661; deguelin 10^−8M,0.60 % con
same,"MTT value, mean of replicates (unheaded line)",H661; deguelin 10^−8M,0.063
same,"MTT value, replicate (unheaded line)",H661; deguelin 10^−8M,0.062 and 0.056 and 0.07
same,Avg. % con,H661; deguelin 10^−10M,0.80 % con
same,"MTT value, mean of replicates (unheaded line)",H661; deguelin 10^−10M,0.083
same,"MTT value, replicate (unheaded line)",H661; deguelin 10^−10M,0.087 and 0.093 and 0.07
same,Avg. % con,H661; deguelin 10^−12M,0.86 % con
same,"MTT value, mean of replicates (unheaded line)",H661; deguelin 10^−12M,0.089
same,"MTT value, replicate (unheaded line)",H661; deguelin 10^−12M,0.09 and 0.084 and 0.094
same,IC50,[2],< 1 nM
same,growth of NSCLC xenografts (tumor volume relative to initial volume),H1299 xenografts,inhibited
